# Data from patent publication US7378387B2, “Method of suppressing immune response by reducing intracellular content of glutathione in macrophages and monocytes” (Ajinomoto Co., Inc., priority 1997, dated 2008).
# Where a name gives a salt, the structure may show the parent alone.
# Experiments:
# [1] = test system: IL-12; test: IL-12 production by MΦ induced by intraperitoneal injection of substances (Example 7); type: in vivo, mouse; conditions: MΦ induced by intraperitoneal injection of the substance; stimulation with LPS and IFNγ
# Method: (§1) The amount of IL-12 was determined through bioassay using cells of human T cell strain 2D6 (J. Leukocyte Biology, vol. 61, p. 346, 1997).
# (§2) 2D6 cells which had been incubated in an RPMI 1640 medium containing 500 pg/ml of recombinant human IL-12, 50 μM of 2-mercaptoethanol and 10% FCS (fetal calf serum) were moved to a tube, and centrifugally washed three times with the above-mentioned medium without IL-12 and cell density was adjusted to 1×10^5/ml. The cell suspension was added in an amount of 100 μl each to a 96-well flat bottom plate containing a sample serially diluted in advance with an RPMI 1640 medium containing 50 μM of 2-mercaptoethanol and 10% FCS in an amount of 100 μl each. Subsequently, the mixture was charged into a 5% […] incubator of 37° C., and incubated for 48 hours. For final 6 hours, ^3H-TdR was pulsed (a substance adjusted to 370 kBq/ml in an RPMI 1640 medium containing 50 μM of 2-mercaptoethanol and 10% FCS was added in an amount of 50 μl each). The cells a harvested, and the radioactivity was measured using a β counter (Matrix 96, supplied by Packard).
# It was examined whether there is a difference in the IL-12 production between LNT-induced MΦ and LPS-induced MΦ. […] Next, the same analysis was conducted using MΦ induced by intraperitoneally injecting substances for changing the GSH content in cells.
# [2] = test system: IL-12; test: Suppression of IL-12 production of reductive MΦ by DEM or IL-4 (Example 7); type: cell-based, mouse
# Method: as §1, §2
# As mentioned above, IL-12 was produced only in reductive MΦ having the high GSH content in cells. It was examined whether this production is suppressed by converting MΦ to oxidative MΦ. That is, it was analyzed whether the IL-12 production is suppressed by exposing lentinan-induced MΦ with DEM.
# (§3) IL-4 is a cytokine which acts on MΦ suppressively. IL-4 is considered to have an opposite function to IL-12 in the Th1/Th2 balance as well. Accordingly, it was examined whether IL-4 acts suppressively on the IL-12 production by reductive MΦ.
# [3] = test system: NO; test: NO production from macrophages induced through administration (Example 9, Table 1); type: in vivo, DBA/2 mice; conditions: LPS 100 ng/ml, IFNγ 100 units/ml
# Method: (§4) A stimulator was added to 1×10^5 MΦ, and the incubation was conducted at 37° C. for 2 days in a CO2 incubator. After the completion of the centrifugation, the culture supernatant was collected.
# (§5) One hundred microliters of a Griess-Romijn reagent (supplied by Waco Pure Chemical Industries, Ltd.) adjusted to a concentration of 50 mg/ml in distilled water were added to 100 μl of the culture supernatant, and the reaction was conducted at room temperature for 15 minutes. After the completion of reaction, an absorbance of 540 nm was measured. NaNO2 was used as a standard.
# (§6) This was clarified by harvesting peritoneal exudate cells 20 hours after the completion of the administration, adhering the cells to the plastic surface, then reacting the cells with 10 μM of monochlorobimane at 37° C. for 30 minutes, and analyzing the reaction product with ACAS. The increase in the amounts of oxidative macrophages can easily be determined visually from the fact that almost no reaction product with monochlorobimane is observed, namely, a gray or blue image is provided, and the increase in the amounts of reductive macrophages from the fact that a red or yellow image is provided respectively. […] Meanwhile, the same examination was conducted by harvesting peritoneal exudate cells after 20 hours of the administration of 2 mg of N-acetylcystine (NAC).
# (§7) Thus, the peritoneal exudate adherent cells were incubated in the following manner, and the amounts of NO and IL-12 produced in the culture supernatant were measured. With respect to the amount of IL-6, the amount of IL-6 produced spontaneously in the absence of a stimulator was measured.
# (§8) Cells: The peritoneal exudate adherent cells obtained by the stimulation, namely, the macrophages were added to a 96-well microplate in an amount of 1×10^5 cells/200 μl each.
# (§9) Medium: Phenol red-free RPMI 1640: 200 μl/well
# (§10) LPS: Lipopolysaccharide (made by Sigma Co.) (origin: E. coli) 100 ng/ml
# [4] = test system: IL-6; test: IL-6 production from macrophages induced through administration (Example 9, Table 1); type: in vivo, DBA/2 mice; set-up: concentration or dose not given beside the values; conditions: produced spontaneously in the absence of a stimulator
# Method: (§11) A stimulator was added to 1×10^6 MΦ, and the incubation was conducted at 37° C. for 2 days in a CO2 incubator. After centrifugation, the culture supernatant was collected.
# (§12) The amount of IL-6 was determined using IL-6 dependent mouse hybridoma MH60 cells (J. Eur. Immunol., vol. 18, p. 951, 1988). One hundred microliters of the culture supernatant were added to 100 μl of the MH60 cell suspension adjusted to 1×10^5 cells/ml in a 10% FCS-containing RPMI medium, and the mixed solution was incubated at 37° C. for 2 days in a CO2 incubator. Subsequently, 10 μl of MTT (supplied by Sigma Co.) solution adjusted to a concentration of 5 mg/ml in the same medium were added thereto, and the reaction was conducted at 37° C. for 5 hours. After the completion of the reaction, the centrifugation was conducted. The supernatant (160 μl) was removed, and 100 μl of a mixture of hydrochloric acid and propanol were added to the residue. The suspension was conducted using a pipetman to dissolve the cells. Immediately after the dissolution, an absorbance of 570 nm was measured with an immunometer (supplied by Bio-Rad).
# as §6, §7, §8, §9
# [5] = test system: IL-12; test: IL-12 production from macrophages induced through administration (Example 9, Table 1); type: in vivo, DBA/2 mice; conditions: LPS 100 ng/ml, IFNγ 100 units/ml
# Method: as §1, §2
# The increase in the amounts of oxidative macrophages can easily be determined visually from the fact that almost no reaction product with monochlorobimane is observed, namely, a gray or blue image is provided, and the increase in the amounts of reductive macrophages from the fact that a red or yellow image is provided respectively. […] Meanwhile, the same examination was conducted by harvesting peritoneal exudate cells after 20 hours of the administration of 2 mg of N-acetylcystine (NAC).
# as §7, §8, §9, §10
# [6] = test system: peritoneal exudate cells (macrophages); test: Induction of oxidative or reductive macrophages by administration, monochlorobimane/ACAS (Example 9); type: in vivo, DBA/2 mice; conditions: Day 1 and Day 2, cells harvested 20 hours later; 20 μg (NAC-OMe)2 or (NAC)2, 10 μg acetylgliotoxin, 2 mg NAC intraperitoneally; 40 μg dexamethasone subcutaneously
# Method: as §6
# [7] = test system: reductive glutathione in MΦ; test: Content of reductive glutathione in MΦ treated with IL-4, ACAS image analysis (Example 7); type: cell-based, mouse; conditions: image analysis by ACAS
# Method: Three-hundred microliters of a cell suspension adjusted concentration of 3×10^5 cells/ml in an RPMI 1640 medium (phenol red-free) were charged into a chambered coverglass (#136439, supplied by Nunc), and incubated at 37° C. for 2 hours using a CO2 incubator. The culture solution was washed with the medium, and 300 μl of monochlorobimane (supplied by Molecular Plobe) adjusted to 10 μM in the same medium were added thereto. The mixture was charged into a CO2 incubator of 37° C., and the reaction was conducted for 30 minutes. The fluorescent intensity was measured with ACAS. In ACAS, a UV laser was used.
# as §3
# [8] = test system: NO; test: NO production of MΦ pretreated with IL-4 (Example 7); type: cell-based, mouse
# Method: as §4, §5
# Reductive MΦ increases the NO production by the IFNγ stimulation in comparison with oxidative MΦ, and rather suppresses the IL-6 production. IFNγ is known to be a cytokine produced from Th1 cells. […] Further, MΦ of which the GSH content in cells was increased by the stimulation with GSH-OEt and MΦ of which the GSH content in cells was decreased by the stimulation with DEM were pretreated with IL-4, and IFNγ thereafter and LPS stimulation was carried out to induce NO production.
# [9] = test system: IL-6; test: IL-6 production of MΦ pretreated with IL-4 (Example 7); type: cell-based, mouse
# Method: as §11, §12
# Further, MΦ of which the GSH content in cells was increased by the stimulation with GSH-OEt and MΦ of which the GSH content in cells was decreased by the stimulation of DEM were pretreated with IL-4, and IFNγ was exposed thereon to induce the IL-6 production. […]
molecule,measurement,setting,value
"CCOC(=O)/C=C\C(=O)OCC [DEM, diethyl maleate, reference compound]",IL-12 production,[1],produced only in MΦ derived from GSH-OEt administered mice
same,IL-12 production from lentinan-induced MΦ with the addition of DEM,[2]; without DEM 828 pg/ml,0 pg/mL
"C[C@@H]1C[C@H]2[C@@H]3CCC4=CC(=O)C=C[C@]4(C)[C@@]3(F)[C@@H](O)C[C@]2(C)[C@@]1(O)C(=O)CO [Dexamethasone, dexamethasone, reference compound]","NO, amount produced relative to that of control group",[3],45%
same,"IL-6, amount produced relative to that of control group",[4],1020%
same,"IL-12, amount produced relative to that of control group",[5],5%
CC(=O)O[C@H]1C=CC=C2C[C@]34SS[C@](CO)(C(=O)N3[C@@H]21)N(C)C4=O [Acetylgliotoxin],"type of macrophages induced (monochlorobimane, ACAS)",[6],Oxidative macrophages were induced
same,"NO, amount produced relative to that of control group",[3],22%
same,"IL-6, amount produced relative to that of control group",[4],450%
same,"IL-12, amount produced relative to that of control group",[5],14%
"IL-4: interleukin 4, a cytokine which acts on MΦ suppressively; typical Th2 cytokine (protein, UniProt P05112 25-153, looked up) Interleukin-4: HKCDITLQEIIKTLNSLTEQKTLCTELTVTDIFAASKNTTEKETFCRAATVLRQFYSHHEKDTRCLGATAQQFHRHKQLIRFLKRLDRNLWGLAGLNSCPVKEANQSTLENFLERLKTIMREKYSKCSS",IL-12 production by GSH-OEt administered mouse MΦ after pretreatment with IL-4,[2]; without IL-4 490 pg/ml,258 pg/mL
same,IL-12 production by LNT-induced MΦ after pretreatment with IL-4,"[2]; without IL-4 1,580 pg/ml",370 pg/mL
same,content of reductive glutathione in MΦ,[7],markedly decreases
same,NO production of GSH-OEt-stimulated and DEM-stimulated MΦ pretreated with IL-4,"[8]; IFNγ and LPS stimulation, both subsets of MΦ",remarkably suppressed
same,IFNγ NO production from MΦ pretreated with IL-4 in comparison with untreated MΦ,[8]; IFNγ stimulation,significantly suppressed
same,IL-6 production of GSH-OEt-stimulated and DEM-stimulated MΦ pretreated with IL-4,"[9]; IFNγ exposure, in comparison with IL-4-untreated MΦ",increased
same,IL-6 production with IFNγ after pretreatment with IL-4,"[9]; resident MΦ, LPS-induced MΦ and LNT-induced MΦ",markedly increased
